Patent US8192962B2, “Processes for detecting toxic substances” (Daikin Industries, Ltd., priority 2001, dated 2012)

System: Energy system protein genes
Test: DNA chip mRNA expression in yeast, energy system protein genes (Table 4)
Type: cell-based, Saccharomyces cerevisiae S288C
In short: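 Expression change after 2 h toxicant exposure (growth-inhibiting, sub-lethal) of log-phase S. cerevisiae S288C at 25° C. Oligo-dT-purified mRNA was labeled with Cy3-dUTP or Cy5-dUTP and hybridized >12 h at 65° C. to a genome-wide chip; ratio of scanned fluorescence to control.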

Compound: CN(C)C(=S)SSC(=S)N(C)C [(10), Tetramethylthiuram disulfide]
- The level of expressed mRNA in the presence of chemical substance/The level of expressed mRNA in the absence of chemical substance (yeast gene YAL060W): 2.5
- The level of expressed mRNA in the presence of chemical substance/The level of expressed mRNA in the absence of chemical substance (yeast gene YBL058W, cells incubated two hours with the chemical substance): 2.1
- The level of expressed mRNA in the presence of chemical substance/The level of expressed mRNA in the absence of chemical substance (yeast gene YBL099W, cells incubated two hours with the chemical substance): 0.7
- The level of expressed mRNA in the presence of chemical substance/The level of expressed mRNA in the absence of chemical substance (yeast gene YBR001C, cells incubated two hours with the chemical substance): 2.1
- The level of expressed mRNA in the presence of chemical substance/The level of expressed mRNA in the absence of chemical substance (yeast gene YBR185C, cells incubated two hours with the chemical substance): 1.6
- The level of expressed mRNA in the presence of chemical substance/The level of expressed mRNA in the absence of chemical substance (yeast gene YBR221C, cells incubated two hours with the chemical substance): 1.3
- The level of expressed mRNA in the presence of chemical substance/The level of expressed mRNA in the absence of chemical substance (yeast gene YCL040W): 3.0
- The level of expressed mRNA in the presence of chemical substance/The level of expressed mRNA in the absence of chemical substance (yeast gene YCR012W): 1.5
- The level of expressed mRNA in the presence of chemical substance/The level of expressed mRNA in the absence of chemical substance (yeast gene YCR046C, cells incubated two hours with the chemical substance): 1.4
- The level of expressed mRNA in the presence of chemical substance/The level of expressed mRNA in the absence of chemical substance (yeast gene YCR105W, cells incubated two hours with the chemical substance): 3.9
- The level of expressed mRNA in the presence of chemical substance/The level of expressed mRNA in the absence of chemical substance (yeast gene YDL021W): 7.4
- The level of expressed mRNA in the presence of chemical substance/The level of expressed mRNA in the absence of chemical substance (yeast gene YDL067C, cells incubated two hours with the chemical substance): 0.9
- The level of expressed mRNA in the presence of chemical substance/The level of expressed mRNA in the absence of chemical substance (yeast gene YDL078C, cells incubated two hours with the chemical substance): 1.0
- The level of expressed mRNA in the presence of chemical substance/The level of expressed mRNA in the absence of chemical substance (yeast gene YDL107W, cells incubated two hours with the chemical substance): 1.8
- The level of expressed mRNA in the presence of chemical substance/The level of expressed mRNA in the absence of chemical substance (yeast gene YDL174C): 1.7
- The level of expressed mRNA in the presence of chemical substance/The level of expressed mRNA in the absence of chemical substance (yeast gene YDL181W, cells incubated two hours with the chemical substance): 0.8
- The level of expressed mRNA in the presence of chemical substance/The level of expressed mRNA in the absence of chemical substance (yeast gene YDR001C): 3.0
- The level of expressed mRNA in the presence of chemical substance/The level of expressed mRNA in the absence of chemical substance (yeast gene YDR050C, cells incubated two hours with the chemical substance): 1.3
- The level of expressed mRNA in the presence of chemical substance/The level of expressed mRNA in the absence of chemical substance (yeast gene YDR079W, cells incubated two hours with the chemical substance): 0.8
- The level of expressed mRNA in the presence of chemical substance/The level of expressed mRNA in the absence of chemical substance (yeast gene YDR178W, cells incubated two hours with the chemical substance): 0.8
- The level of expressed mRNA in the presence of chemical substance/The level of expressed mRNA in the absence of chemical substance (yeast gene YDR231C): 1.4
- The level of expressed mRNA in the presence of chemical substance/The level of expressed mRNA in the absence of chemical substance (yeast gene YDR298C, cells incubated two hours with the chemical substance): 1.6
- The level of expressed mRNA in the presence of chemical substance/The level of expressed mRNA in the absence of chemical substance (yeast gene YDR377W, cells incubated two hours with the chemical substance): 0.9
- The level of expressed mRNA in the presence of chemical substance/The level of expressed mRNA in the absence of chemical substance (yeast gene YDR529C, cells incubated two hours with the chemical substance): 0.6
- The level of expressed mRNA in the presence of chemical substance/The level of expressed mRNA in the absence of chemical substance (yeast gene YEL024W, cells incubated two hours with the chemical substance): 0.6
- The level of expressed mRNA in the presence of chemical substance/The level of expressed mRNA in the absence of chemical substance (yeast gene YEL039C, cells incubated two hours with the chemical substance): 1.2
- The level of expressed mRNA in the presence of chemical substance/The level of expressed mRNA in the absence of chemical substance (yeast gene YER178W): 1.3
- The level of expressed mRNA in the presence of chemical substance/The level of expressed mRNA in the absence of chemical substance (yeast gene YFL057C): 46.1
- The level of expressed mRNA in the presence of chemical substance/The level of expressed mRNA in the absence of chemical substance (yeast gene YFR053C): 1.1
- The level of expressed mRNA in the presence of chemical substance/The level of expressed mRNA in the absence of chemical substance (yeast gene YGL018C, cells incubated two hours with the chemical substance): 1.4
- The level of expressed mRNA in the presence of chemical substance/The level of expressed mRNA in the absence of chemical substance (yeast gene YGL062W): 2.5
- The level of expressed mRNA in the presence of chemical substance/The level of expressed mRNA in the absence of chemical substance (yeast gene YGL187C, cells incubated two hours with the chemical substance): 0.6
- The level of expressed mRNA in the presence of chemical substance/The level of expressed mRNA in the absence of chemical substance (yeast gene YGL191W, cells incubated two hours with the chemical substance): 1.3
- The level of expressed mRNA in the presence of chemical substance/The level of expressed mRNA in the absence of chemical substance (yeast gene YGL205W, cells incubated two hours with the chemical substance): 0.6
- The level of expressed mRNA in the presence of chemical substance/The level of expressed mRNA in the absence of chemical substance (yeast gene YGL256W, cells incubated two hours with the chemical substance): 1.2
- The level of expressed mRNA in the presence of chemical substance/The level of expressed mRNA in the absence of chemical substance (yeast gene YGR008C): 2.4
- The level of expressed mRNA in the presence of chemical substance/The level of expressed mRNA in the absence of chemical substance (yeast gene YGR043C): 8.4
- The level of expressed mRNA in the presence of chemical substance/The level of expressed mRNA in the absence of chemical substance (yeast gene YGR062C, cells incubated two hours with the chemical substance, 25° C., YPD medium): 1.4
- The level of expressed mRNA in the presence of chemical substance/The level of expressed mRNA in the absence of chemical substance (yeast gene YGR087C, cells incubated two hours with the chemical substance): 0.9
- The level of expressed mRNA in the presence of chemical substance/The level of expressed mRNA in the absence of chemical substance (yeast gene YGR174C, cells incubated two hours with the chemical substance): 0.7
- The level of expressed mRNA in the presence of chemical substance/The level of expressed mRNA in the absence of chemical substance (yeast gene YGR192C): 1.3
- The level of expressed mRNA in the presence of chemical substance/The level of expressed mRNA in the absence of chemical substance (yeast gene YGR207C): 2.6
- The level of expressed mRNA in the presence of chemical substance/The level of expressed mRNA in the absence of chemical substance (yeast gene YGR244C): 1.1
- The level of expressed mRNA in the presence of chemical substance/The level of expressed mRNA in the absence of chemical substance (yeast gene YGR254W): 1.2
- The level of expressed mRNA in the presence of chemical substance/The level of expressed mRNA in the absence of chemical substance (yeast gene YGR256W): 2.5
- The level of expressed mRNA in the presence of chemical substance/The level of expressed mRNA in the absence of chemical substance (yeast gene YHL008C): 1.7
- The level of expressed mRNA in the presence of chemical substance/The level of expressed mRNA in the absence of chemical substance (yeast gene YHR179W): 5.8
- The level of expressed mRNA in the presence of chemical substance/The level of expressed mRNA in the absence of chemical substance (yeast gene YIL160C): 3.8
- The level of expressed mRNA in the presence of chemical substance/The level of expressed mRNA in the absence of chemical substance (yeast gene YIL172C): 7.1
- The level of expressed mRNA in the presence of chemical substance/The level of expressed mRNA in the absence of chemical substance (yeast gene YIR031C, cells incubated two hours with the chemical substance): 1.0
- The level of expressed mRNA in the presence of chemical substance/The level of expressed mRNA in the absence of chemical substance (yeast gene YJL052W): 2.0
- The level of expressed mRNA in the presence of chemical substance/The level of expressed mRNA in the absence of chemical substance (yeast gene YJL121C, cells incubated two hours with the chemical substance): 0.4
- The level of expressed mRNA in the presence of chemical substance/The level of expressed mRNA in the absence of chemical substance (yeast gene YJL166W, cells incubated two hours with the chemical substance): 1.2
